Laboratory results published in patent US20120122692A1, “Method and Formulation for Eliminating Moss with Oregano Oil” (priority 2006, published 2012).

Experiments:
silvery thread moss = assay: Field test of spray treatments on silvery thread moss in a creeping bentgrass putting green: percent moss cover; assay type: in vivo, Bryum argenteum
Method: (§1) Aqueous solutions of oregano oil extract were tested on silvery thread moss growing on turf grass. The turf grass was a mature stand of “Penncross” creeping bentgrass Agrostis stolonifera L. on a sand based rootzone. IA grid of six inch square plots were arranged on the turf. Each plot was initially rated for percent moss cover on July, 2006. Only plots with greater than 50% moss cover tracked for this test. Table 1 summarized the 79 treatments tested. Oregano oil extract formulations were compared with carefentrazone and a non-treated control. Several oregano oil formulation includes a surfactant, and these formation are marked as ORG AS, ORG BS, ORG CS, and ORG DS. Each formulation was applied as a squirt or pump from a spray bottle containing the formulation. The spray bottle used was one quart bottle that delivered 2.8 ml per pump onto a four inch square are. All of the formulations were applied at least once on Jul. 6, 2006. Sequential applications were also additionally performed bi-weekly on Jul. 20, Aug. 17 and Sep. 12, 2006 for a total of one, three, or four bi-weekly application. Each carefentrazone application was made at a recommended rate of 6.7 fl. Oz. product/A.
(§2) The data from the test were analyzed using PROC ANOVA of the SAS software, Version 8 of the SAS System for Windows (SAS Institute, 1999). Means were separated (alpha=0.05) by Fischer's protected LSD (Fischer, 1966). Turf quality was rated on a scale of 1-10, where 10=best turf with no phyoxicity, 6=lowest acceptable turf quality and turf phytotoxicity, 1=worst turf quality with most phytotosixity and completely brown turf.

[1] = test system: “Penncross” creeping bentgrass Agrostis stolonifera L.; assay: Field test of spray treatments on a creeping bentgrass putting green: turf quality / phytotoxicity rating; assay type: in vivo; conditions: scale 1-10: 10=best turf, no phytotoxicity, 6=lowest acceptable, 1=completely brown turf
Method: as §1, §2

SMILES: Cc1nn(-c2cc(CC(Cl)C(=O)O)c(Cl)cc2F)c(=O)n1C(F)F (stereo not drawn) [ES11, Carfentrazone]
- % Moss Cover (silvery thread moss; 9 Oct (Oct. 9, 2006)): 77.0%
- % Moss Cover (silvery thread moss; 12 Sep): 65.8%
- % Moss Cover (silvery thread moss; 17 Aug): 82.0%
- Turf Quality ([1]; 9 Oct): 10.0
- Turf Quality ([1]; 12 Sep): 10.0
- Turf Quality ([1]; 17 Aug): 10.0

SMILES: Cc1nn(-c2cc(CC(Cl)C(=O)O)c(Cl)cc2F)c(=O)n1C(F)F (stereo not drawn) [ES13, Carfentrazone]
- % Moss Cover (silvery thread moss; 9 Oct (Oct. 9, 2006)): 63.0%
- % Moss Cover (silvery thread moss; 12 Sep): 75.0%
- % Moss Cover (silvery thread moss; 17 Aug): 81.8%
- Turf Quality ([1]; 9 Oct): 10.0
- Turf Quality ([1]; 12 Sep): 10.0
- Turf Quality ([1]; 17 Aug): 10.0

SMILES: Cc1nn(-c2cc(CC(Cl)C(=O)O)c(Cl)cc2F)c(=O)n1C(F)F (stereo not drawn) [ES16, Carfentrazone]
- % Moss Cover (silvery thread moss; 9 Oct (Oct. 9, 2006)): 55.8%
- % Moss Cover (silvery thread moss; 12 Sep): 61.8%
- % Moss Cover (silvery thread moss; 17 Aug): 55.8%
- Turf Quality ([1]; 9 Oct): 10.0
- Turf Quality ([1]; 12 Sep): 10.0
- Turf Quality ([1]; 17 Aug): 10.0

SMILES: Cc1nn(-c2cc(CC(Cl)C(=O)O)c(Cl)cc2F)c(=O)n1C(F)F (stereo not drawn) [Treatment E11, Carfentrazone]
- % Moss Cover (silvery thread moss; 9 Oct (Oct. 9, 2006)): 48.0%
- % Moss Cover (silvery thread moss; 12 Sep): 66.0%
- % Moss Cover (silvery thread moss; 17 Aug): 60.0%
- Turf Quality ([1]; 9 Oct): 10.0
- Turf Quality ([1]; 12 Sep): 10.0
- Turf Quality ([1]; 17 Aug): 10.0

SMILES: Cc1nn(-c2cc(CC(Cl)C(=O)O)c(Cl)cc2F)c(=O)n1C(F)F (stereo not drawn) [Treatment E13, Carfentrazone]
- % Moss Cover (silvery thread moss; 9 Oct (Oct. 9, 2006)): 70.8%
- % Moss Cover (silvery thread moss; 12 Sep): 73.8%
- % Moss Cover (silvery thread moss; 17 Aug): 68.8%
- Turf Quality ([1]; 9 Oct): 10.0
- Turf Quality ([1]; 12 Sep): 10.0
- Turf Quality ([1]; 17 Aug): 9.6

SMILES: Cc1nn(-c2cc(CC(Cl)C(=O)O)c(Cl)cc2F)c(=O)n1C(F)F (stereo not drawn) [Treatment E16, Carfentrazone]
- % Moss Cover (silvery thread moss; 9 Oct (Oct. 9, 2006)): 55.0%
- % Moss Cover (silvery thread moss; 12 Sep): 59.0%
- % Moss Cover (silvery thread moss; 17 Aug): 58.0%
- Turf Quality ([1]; 9 Oct): 9.6
- Turf Quality ([1]; 12 Sep): 10.0
- Turf Quality ([1]; 17 Aug): 10.0
